Our source for the TGI and GI50 values is PubChem BioAssay (NCI).

Common to all, as to test: NCI anticancer screen, dose series, 48 h
Assay [1] concerns HCC-2998 colon.
The test system of assay [2] is SK-MEL-5 melanoma.
Assay [3] concerns UACC-257 melanoma.
Assay [4] deals with SNB-75 CNS.
Assay [5] deals with SF-539 CNS.
Assay [6] relates to U251 CNS.
Assay [7] deals with UO-31 renal.
Assay [8] relates to LOX IMVI melanoma.
Assay [9] deals with MDA-N.
Assay [10] concerns A498 renal.

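Test compounds were applied to cells in 96-well plates for 48 hours at 5 doses. GI50 marks 50% less growth. TGI marks complete inhibition of growth.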

`COc1cccc(/C=C2/Sc3scc(-c4ccccc4)[n+]3C2=O)c1O`: the TGI is 30.7 µM in assay [1]; 31.1 µM in assay [2]; 44.9 µM in assay [3]; > 100 µM in [4]; 47.6 µM in [5]; 43.3 µM in assay [6]. Moreover, the TGI is 26.9 µM in assay [7] and 36.4 µM in [8].

As for `NNC(=O)c1ccc(-n2nnc(C(=O)NN)c2C(=O)NN)cc1`, the TGI in assay [1], in [2], in assay [3], in [6], in [7] and in assay [9] was > 100 µM throughout. Also, in [8], the TGI is > 100 µM.

Regarding `CCCCCCNC(=O)c1cnc(Cl)cn1`, the TGI in assay [2] turned out to be 30.4 µM; in assay [3], 37.4 µM; in assay [4], 49.1 µM; in [5], 35.4 µM; in assay [6], 23.6 µM; in assay [7] it was 3.24 µM. The same compound yielded a TGI in [8] of 27.7 µM.

`O=NC1C(Cl)C2CC1C1C(Br)C(Br)CC21` (stereo unspecified): the TGI in assay [2], in assay [4], in [5], in assay [6], in assay [7] and in assay [10] was > 100 µM in each case. Also, in assay [8], the TGI is > 100 µM.

Consider `COc1ccccc1NC(=O)/C(Cc1nc2ccc([N+](=O)[O-])cc2[nH]c1=O)=N\NC(=O)C[N+](C)(C)C`, for which the TGI in assay [1], in [2], in assay [3], in assay [4], in assay [5] and in assay [6] was > 100 µM in each case. For the same compound, the TGI in assay [7] was > 100 µM; in assay [9] it was 36 µM; in assay [8], > 100 µM.

Take `CCCC(=O)NC1=C(NCC)C(=O)c2ccccc2C1=O`: the TGI in assay [1], in assay [2], in assay [3], in [4], in [5] and in assay [6] was > 100 µM each time. Besides, the TGI in [9] is 63.2 µM.

Consider `O=c1oc2ccccc2c(Nc2ccc3c(c2)S(=O)(=O)c2ccccc2O3)c1[N+](=O)[O-]`, for which the TGI is 52.6 µM in assay [1]; 50.1 µM in assay [2]; 58.8 µM in [3]; 52.4 µM in assay [4]; 65.2 µM in assay [5]; 42.1 µM in assay [6]. Moreover, the TGI was 99.4 µM in [7], 85.3 µM in assay [9] and > 100 µM in [8].

Take `C[C@@H]1CC[C@H]2C(COCCOCC3=C(C(F)(F)F)O[C@@H]4O[C@@]5(C)CC[C@H]6[C@H](C)CC[C@@H]3[C@@]46OO5)=C(C(F)(F)F)O[C@@H]3O[C@@]4(C)CC[C@@H]1[C@]32OO4`: the GI50 in assay [1] is > 11.9 µM; in assay [2], 176 nM; in assay [3], 407 nM; in assay [4] it was > 4.64 µM; in assay [5], 26.4 nM; in assay [6], < 10 nM. The GI50 in [7] is 186 nM; in assay [10] it was > 20.2 µM; in assay [8], 64.1 nM. Also, the TGI in assay [1] is > 100 µM; in assay [2] it was > 100 µM; in assay [3] it was > 100 µM; in assay [4], > 100 µM; in assay [5], > 69.8 µM; in assay [6], 0.178 µM. The results for the TGI in [7] and in assay [10] were > 100 µM and > 96.9 µM, respectively.

As for `CNC(=O)N1CN(c2ccccc2)C2(CCN(CCCC(=O)c3ccc(F)cc3)CC2)C1=O`, the TGI in assay [1] was 22.2 µM; in assay [2], 26.7 µM; in [3] it was 24.2 µM; in assay [4], > 100 µM; in assay [5], 34 µM; in [6], 60.4 µM. For the same compound, the TGI is 28.1 µM in [7] and 37.1 µM in assay [8].

Regarding `O=c1oc2ccccc2cc1/C=N/N1C(=S)N(c2ccccc2)C(=Nc2ccccc2)C1=Nc1ccccc1`, the TGI in assay [1], in assay [2], in [3], in assay [4], in [5] and in assay [6] was > 100 µM each time. Further, the TGI in assay [7] and in assay [9] was > 100 µM each time.

For `CC(=O)Nc1ccccc1SCCSSCCSc1ccccc1NC(C)=O`, the TGI in [1] is 50.8 µM; in assay [2], > 100 µM; in assay [3] it was 45 µM; in [4], 73.2 µM; in [5] it was 52.1 µM; in assay [6], 70.2 µM. Moreover, the TGI in assay [7] was determined as 35.8 µM; in assay [9], 68.7 µM; in assay [8], 38.7 µM.

As to `N#Cc1c(N)oc(-c2cccc([N+](=O)[O-])c2)c1C#N`, the TGI in assay [1] came out at 33.6 µM; in assay [2], 37.7 µM; in assay [3], 48.9 µM; in assay [4] it was 98.2 µM; in assay [5] it was 57.2 µM; in assay [6] it was 94.5 µM. Further, the results for the TGI in [7], in assay [10] and in [8] were 30.8 µM, 61.7 µM and 85.6 µM, respectively.

Take `COC(=O)C1CC2(CCC1=O)Cc1ccccc1C2=O` (stereo unspecified): the TGI in assay [1], in assay [2], in [3], in assay [4], in assay [5] and in assay [6] was > 100 µM throughout. Also, the TGI in assay [7], in [9] and in assay [8] was > 100 µM each time.

Consider `COC(=O)c1c2n(c3ccccc13)C[C@H]1OC(C)(C)O[C@@H]21`, for which the TGI in assay [1], in assay [2], in assay [3], in assay [4], in assay [5] and in [6] was > 100 µM in each case. The TGI in assay [7], in [10] and in assay [8] was > 100 µM each time.

For the compound `Cc1ccccc1N=Nc1ccc(N=Nc2c(O)ccc3ccccc23)c(C)c1`, the TGI in assay [2], in assay [3], in [4], in assay [6], in assay [7] and in assay [10] was > 100 µM each time. Moreover, the TGI in [8] was > 100 µM.

Turning to `N#CC(c1ccccc1)c1nc2ccc(=N)cc-2n(O)c1C(C#N)c1ccccc1` (stereo unspecified), the TGI in [3], in assay [5], in [6], in assay [7], in assay [10] and in [8] was > 100 µM each time.

Regarding `C/C(=N\Nc1nc2ccccc2s1)c1ncccn1`, the TGI was 11.9 µM in assay [1]; 0.219 µM in assay [2]; 5.58 µM in assay [4]; 20 µM in assay [5]; > 100 µM in assay [6]; 0.395 µM in assay [7]. Moreover, the TGI in [10] is > 100 µM.

`CCOC(=O)C1=C(O)C(=O)c2ccsc2C1=O`: the TGI in [1], in assay [2], in [3], in assay [4], in assay [5] and in assay [6] was > 100 µM in each case. In addition, the TGI in [7], in assay [10] and in assay [8] was > 100 µM throughout.

On to `CC12NN=NC1C(=O)NC2=O` (stereo unspecified), for which the TGI in assay [1], in assay [2], in assay [3], in [4], in [5] and in [6] was > 100 µM throughout. Further, the TGI in assay [7], in assay [10] and in assay [8] was > 100 µM throughout.

For the compound `CCOC(=O)CSc1nc(-c2ccccc2)c(C#N)c(=O)[nH]1`, the TGI in [1], in assay [2], in [3], in assay [4], in [5] and in assay [6] was > 100 µM in each case. Further, the TGI in [7] and in [10] was > 100 µM in each case.

In the case of `N#CC(C#N)=Cc1ccc2c(c1)OC(Cl)O2` (stereo unspecified), the TGI was 35.1 µM in [2]; 41 µM in assay [3]; 75.4 µM in assay [4]; 38.6 µM in assay [5]; 41.4 µM in assay [6]; 30.7 µM in assay [7]. The TGI in assay [9] came to 35.2 µM; in assay [8] it was 38.2 µM.

Turning to `COc1cc(OC)c(/C=C2\N=C(C)N(Nc3nnc(NN4C(=O)/C(=C/c5c(OC)cc(OC)cc5OC)N=C4C)c4ccccc34)C2=O)c(OC)c1`, the TGI in assay [2], in [3], in assay [4], in assay [5], in [6] and in assay [10] was > 100 µM in each case. Further, in [8], the TGI is > 100 µM.

Turning to `COc1ccc(NS(=O)CCCc2ccccc2)cc1` (stereo unspecified), the TGI in assay [2], in [3], in [5], in assay [6], in [7] and in [9] was > 100 µM each time. Further, the TGI in [8] was > 100 µM.

On to `Cn1c(/C=C(\O)c2ccc(Cl)cc2)nc2ccccc21`, for which the TGI in assay [1] was > 100 µM; in assay [2] it was 92.4 µM; in [3] it was 67.1 µM; in assay [4], > 100 µM; in [5], > 100 µM; in [6] it was > 100 µM. Also, the TGI is 66.1 µM in assay [7] and > 100 µM in [8].

Take `CCO[C@]12C[C@H](OC)[C@@]3(O)CC(C1[C@H]3OCc1ccccc1)C13C4C2[C@H](OC)C1[C@](COC)(CN4CC)[C@H](O)C[C@@H]3OC` (stereo partly specified): the TGI in [1], in [2], in assay [3], in assay [4], in [5] and in assay [6] was > 100 µM in each case. In addition, the TGI in [7] and in assay [8] was > 100 µM throughout.

Take `NC(N)=N/N=C/c1c(-c2ccccc2)nc2n1ccc1nc(-c3ccccc3)c(/C=N/N=C(N)N)n12`: the TGI in [2] was > 100 µM; in [3], 81.8 µM; in assay [4], > 100 µM; in assay [5] it was > 100 µM; in assay [6], > 100 µM; in assay [7] it was > 100 µM. Besides, the TGI in [10] and in assay [8] was > 100 µM each time.

Turning to `CCOC1(COP(=O)(OCc2ccccc2)OCc2ccccc2)COC(COP(=O)(OCc2ccccc2)OCc2ccccc2)(OCC)CO1` (stereo unspecified), the TGI in assay [1], in assay [2], in [3], in assay [5], in assay [6] and in assay [8] was > 100 µM each time.

`CC(=O)C1=CSC2[C@H](NC(=O)Cc3ccccc3)C(=O)N2C1C(=O)OC(c1ccccc1)c1ccccc1` (stereo partly specified): the TGI in [1], in assay [2], in assay [3], in [4], in assay [5] and in assay [7] was > 100 µM throughout. Moreover, the TGI in assay [10] is > 100 µM.

With `COc1cc2cc(C(=O)N3CC(CCl)c4ccc(O)cc43)[nH]c2c(OC)c1OC` (stereo unspecified), the TGI came out at 0.00936 µM in assay [1]; 0.000396 µM in assay [2]; 0.0652 µM in assay [4]; 0.00881 µM in assay [5]; 0.0429 µM in assay [7]; 0.136 µM in [8].

As to `C=C1CC2OC2(C(=O)O[C@H]2CCC3[C@@H]4CCC5=CC(=O)CC[C@]5(C)C4CC[C@@]32C)C1=O` (stereo partly specified), the TGI in assay [1] worked out at 74.5 µM; in assay [2], 27.6 µM; in assay [3], 18.3 µM; in assay [4] it was 33.9 µM; in assay [5] it was 18.1 µM; in assay [6] it was 21.2 µM. The TGI turned out to be 15.4 µM in assay [7], 30.6 µM in assay [10] and 21.1 µM in assay [8].

Consider `CN(CCO)c1nc2c(c(=O)[nH]1)CCC2`, for which the TGI in assay [1], in [2], in assay [3], in assay [4], in assay [5] and in assay [6] was > 100 µM throughout. Further, the TGI in assay [7] and in assay [8] was > 100 µM in each case.
